The results in this text go back to patent US12403151B2, “Compositions for use in the promotion of intestinal muscle growth and development and associated intestinal motility” (SOCIETE DES PRODUITS NESTLE S.A., priority 2017, dated 2025).

Entries after “also recorded” stand apart in the source; their conditions may differ.

This assay deals with muscle layer of the ileum. Put plainly: Thickness of the muscle layer of the ileum in young IUGR rats supplemented with HMOs. It counts as in vivo, Sprague-Dawley rats. To be noted: IUGR rat pups; 3 g/kg body weight HMO by gavage d7 to d21, then 4.5% HMO in diet d22 to d57 (mix: LNnT:2FL 1:2 by weight, 1.5% + 3%); sacrificed at day 57; H&E histology; compared with Normal and IUGR control groups. The source says: Three groups of time-mated pregnant Sprague-Dawley female rats were bought from Charles River laboratories. One group was submitted to food restriction of 60% during the last 10 days of gestation and their offspring were cross-fostered to normally fed rats. A second group of pregnant females was normally fed and their offspring cross-fostered among the same group of dams. Immediately after birth (postnatal day 2 (d=2)), the born rat pups—subjects of the experiment—were assigned to one of the following groups: • Normal group (positive control): Normal-weight offspring born from unrestricted dams and fed after birth a normal non-supplemented diet; • IUGR group (negative control; n=20): IUGR rats being fed a normal diet after birth; • IUGR rats+HMO (test groups): During the experiment, they were reared by their mothers for 21 days and supplemented with HMOs (2-FL, LNnT or the Mix of 2-FL and LNnT). At weaning, they were fed a diet supplemented with the same HMOs, see details below. […]
Rats were sacrificed at day 57 after a 6-hr fasting period and samples of the small intestine were collected. The thickness of the muscle layer was measured on a sample of the ileum. […]

For “2′-fucosyllactose [2FL, reference compound]”, the “thickness of the muscle layer of the ileum (mean per group, FIG. 1)” value is “no increase in intestinal muscle thickness”. The value for `CC(=O)N[C@H]1[C@H](O[C@H]2[C@@H](O)[C@@H](CO)O[C@@H](O[C@H]3[C@H](O)[C@@H](O)C(O)O[C@@H]3CO)[C@@H]2O)O[C@H](CO)[C@@H](O[C@@H]2O[C@H](CO)[C@H](O)[C@H](O)[C@H]2O)[C@@H]1O` (mixture of isomers) [LNnT, lacto-N-neotetraose] was “successful in increasing the thickness; also recorded: increase of the ileum muscle thickness over both the Normal and the IUGR groups”.
